From the NIST ThermoML archive (doi:10.1021/je800290k)
“And” between values parts separate entries of the source, which are not always exact repeats. Equal values may be shown once.

Details: Liquid, Ebulliometric method (Recirculating still)

NCCO [2-aminoethan-1-ol]
Details | vapor or sublimation pressure [kPa]
357.46 K | 2.98
362.99 K | 3.98
369.33 K | 5.48
374.29 K | 6.98
378.41 K | 8.47
384.07 K | 10.97
391.14 K | 14.96
398.01 K | 19.97
403.43 K | 24.97
408.19 K | 29.97
415.78 K | 39.98
415.81 K | 39.95
424.61 K | 54.95
429.44 K | 64.95
431.61 K | 69.95
435.61 K | 79.95

CNCCCN [N-methyl-1,3-diaminopropane]
Details | vapor or sublimation pressure [kPa]
326.81 K | 3.46
331.62 K | 4.47
337.36 K | 5.97
343.91 K | 7.97
353.78 K | 12.48
365.76 K | 20.47
372.77 K | 27.96
383.53 K | 39.97
397.99 K | 64.98
404.7 K | 79.98
412.5 K | 101.27

CN(CCO)CCO [N-methyldiethanolamine]
Details | vapor or sublimation pressure [kPa]
409.69 K | 2.48
413.43 K | 2.98
416.72 K | 3.48
421.96 K | 4.48
426.65 K | 5.48
430.48 K | 6.48
435.5 K | 7.98

O [water]
Details | vapor or sublimation pressure
311.63 K | 6.78 kPa
313.24 K | 7.38 kPa
314.99 K | 8.11 kPa
323.11 K | 12.28 kPa
323.14 K | 12.28 kPa
323.15 K | 12.27 kPa
325.47 K | 13.78 kPa
325.61 K | 13.8 kPa
332.76 K | 19.84 kPa
332.85 K | 19.84 kPa
333.13 K | 19.58 kPa
333.17 K | 19.88 kPa and 19.88 kPa
333.18 K | 19.88 kPa and 19.88 kPa
333.19 K | 19.87 kPa
340.41 K | 27.6 kPa
340.44 K | 27.58 kPa
340.47 K | 27.6 kPa
348.8 K | 39.83 kPa
348.84 K | 39.83 kPa
349.91 K | 41.4 kPa
349.94 K | 41.39 kPa
349.97 K | 41.4 kPa
353.14 K | 47.18 kPa and 47.19 kPa
353.15 K | 47.18 kPa
357.02 K | 55.17 kPa
357.07 K | 55.18 kPa
357.08 K | 55.17 kPa
358.87 K | 59.88 kPa
358.92 K | 59.88 kPa
362.55 K | 68.92 kPa
362.59 K | 68.92 kPa
362.8 K | 69 kPa
362.83 K | 69 kPa and 68.98 kPa
362.89 K | 69.83 kPa
362.93 K | 69.83 kPa
367.48 K | 82.79 kPa
367.49 K | 82.79 kPa
367.67 K | 82.79 kPa
367.69 K | 82.79 kPa and 82.78 kPa
371.67 K | 96.51 kPa
371.7 K | 96.51 kPa
371.9 K | 96.47 kPa
371.91 K | 96.58 kPa
372.69 K | 99.28 kPa
372.86 K | 100.59 kPa
372.89 K | 100.59 kPa
373.16 K | 100.98 kPa and 100.98 kPa
